According to patent US20240350647A1, “STING SENSITIZING AGENTS” (STipe Therapeutics ApS, priority 2023, published 2024):
“Also recorded” adds a separate entry of the source. Where a SMILES comes first, the peptide text is derived from it. Bridges are numbered along the chain shown (N, C = ends). [ ]: non-standard residue; d: D form. The star is where a group is joined. C16 diacid = O=C(O)CCCCCCCCCCCCCCC(=O)*; AEEA = NCCOCCOCC(=O)O

Experiment: In vitro metabolic stability in fresh blood
Assay type: in vitro ADME
Conditions: 37° C.; mouse, rat and human blood
Protocol: Fresh blood from mouse (CD-1) and rat (Wistar) was collected from lab animals. Human blood was collected from healthy donors at local hospital or acquired from commercial vendor (BioIVT). Blood from non-human primates (Cynomolgus macaque) was acquired from commercial vendor (BioTVT).
For mouse, rat and human blood, 5.0 μg/mL of tested agent (except Agent 1 in human blood) was diluted from stock solution in DMSO to a final DMSO concentration of 0.5% and incubated in 1000 μL of blood at 37° C., in duplicate. At 0, 5, 15, 30, and 60 minutes, 180 μL was sampled and centrifuged at 2000 g for 1 min, 80 μL supernatant was taken and diluted 1:1 with water followed by precipitation with acetonitrile containing 5% TFA (internal standard 100 nM leucine enkephalin+Glu1 fibrinopeptide B). The obtained supernatant 60 μL was further diluted with 30 μL 20% DMSO in ultra-pure water and submitted for immediate analysis by LC-MS/MS. The controls were 1 μM propantheline bromide (mouse, human) or 1 μM enalapril (rat).
Incubation of Agent 1 in blood from human and monkey was performed in a similar manner. A 25 μM solution of Agent 1 was prepared with 5% DMSO and 22.5% methanol in water. […]
The peak areas were determined against a calibration curve and the T0 sample was set to 100%. The disappearance rate (k) was calculated and the half-life for each incubation was determined (t½=ln 2/k).

With `CC[C@H](C)[C@H](NC(=O)[C@H](CC(N)=O)NC(=O)[C@H](CCCCN)NC(=O)[C@H](C)NC(=O)[C@H](CCCCN)NC(=O)[C@H](CCCCN)NC(=O)COCCOCCNC(=O)COCCOCCNC(=O)CCCCCCCCCCCCCCC(=O)O)C(=O)N[C@H](C(=O)N[C@@H](CC(C)C)C(=O)N[C@@H](CC(C)C)C(=O)N[C@@H](CCCCN)C(=O)NCC(=O)N[C@@H](CC(C)C)C(=O)N[C@@H](CCC(=O)O)C(=O)N[C@H](C(=O)N[C@H](C(=O)N[C@@H](CC(N)=O)C(=O)N[C@@H](CC(=O)O)C(=O)N[C@@H](Cc1c[nH]c2ccccc12)C(=O)N[C@@H](Cc1c[nH]cn1)C(=O)N[C@@H](Cc1ccccc1)C(=O)N[C@H]1CSSC[C@@H](C(N)=O)NC(=O)[C@@H](CCCNC(=N)N)NC(=O)[C@H](CCCNC(=N)N)NC(=O)[C@@H](CCCCN)NC(=O)[C@H](CCCCN)NC(=O)[C@@H](CCCNC(=N)N)NC(=O)CNC(=O)[C@@H](CCCNC(=N)N)NC(=O)[C@H](CCCNC(=N)N)NC(=O)[C@@H](CCCNC(=N)N)NC1=O)[C@@H](C)CC)C(C)C)C(C)C` [Agent 1] ({C16 diacid-AEEA-AEEA}-KKAKNIVLLKGLEVINDWHFC[dR]R[dR]G[dR]K[dK]R[dR]C-NH2; disulfide 21-31) the “metabolic stability in fresh blood (half-life) compared to Agent 2 and Agent 3” value was “better stability; also recorded: considerably reduces the metabolism”.
